Experimental findings from US20110218143A1, “COMPOSITIONS AND METHODS FOR TISSUE REPAIR” (UNIVERSITY OF FLORIDA RESEARCH FOUNDATION, priority 2007, published 2011) are described below.

Data set [1] concerns stem cell populations in blood (cd34+, cd45+, Sca-1+ cells). Nature of the data set: FACS of cells expressing stem cell markers CD34, CD45, Sca-1 in blood samples. The data set is classed as in vivo, C57BL6/J mice. As to the method: Mice received either a placebo or triptolide (400 μg/kg) by intraperitoneal injection.
Celastrol analogs administered included dihydrocelastrol, dihydrocelastrol diacetate, and pristimerol (dihydropristimerin). Mice received either a placebo or a celastrol analog (3.0 mg/kg) by intraperitoneal injection.
(§1) Mice received either a placebo (PBS) or oridonin (3.0 mg/kg) by intraperitoneal injection.

In data set [2] the test system is stem cell populations in bone marrow (cd34+, cd45+, Sca-1+ cells). Nature of the data set: FACS of cells expressing stem cell markers CD34, CD45, Sca-1 in bone marrow samples. In kind it is in vivo, C57BL6/J mice. As to the method:
as §1

The subject of data set [3] is stem cell populations in blood (cd34+, cd45+, Sca-1+ cells). In words: FACS of cells expressing stem cell markers CD34, CD45, Sca-1 in blood samples. In kind it is in vivo, C57BL6/J mice. The note with it: valproic acid 200 mg/kg i.p.; 72 hours post treatment.
For a further data set, the system named is mice. Particulars: mouse, in vivo.
[4] abbreviates: valproic acid 200 mg/kg i.p., 72 hours post treatment.
The mark [5] stands for this setting: valproic acid 200 mg/kg i.p., 24 hours post treatment.
The mark [6] stands for this setting: triptolide 400 μg/kg i.p., 24 hours post treatment.
Setting [7] is: triptolide 400 μg/kg i.p., 48 hours post treatment.
The mark [8] stands for this setting: triptolide 400 μg/kg i.p., 72 hours post treatment.

Procedure for mice: Valproic acid was administered to C57BL6/J mice to determine the effect of valproic acid on stem cell populations in bone marrow and in blood. Mice received either a placebo or valproic acid (200 mg/kg) by intraperitoneal injection. […] Bone marrow samples were taken from both groups of mice at 24 hours after administration of the placebo or valproic acid. Blood samples were taken from both groups of mice at 72 hours after administration of the placebo or valproic acid. The bone marrow samples and blood samples were analyzed by FACS for cells expressing stem cell markers. To observe the effect of treatment with valproic acid, cells expressing the stem cell markers CD34, CD45, and Sca-1 in the bone marrow and blood samples, were quantitated as a percentage of the total populations in their respective samples (i.e., in the bone marrow sample and in the blood sample, respectively).

For the molecule `CCCC(CCC)C(=O)O` [valproic acid], in data set [1] (setting [4]), the “Sca-1+ cells, percent of the population of blood cells” value was “less than 0.4%”; the “cd34+ cells, percent of the population of blood cells” value is given as “greater than 0.4%”; the “cd45+ cells, percent of the population of blood cells” value is “less than 0.2%”; the “fold increase of percentage of cd34+ cells in blood over control” value is ~2.6 fold. Moreover, in data set [2] (setting [5]), the “CD34 cells, percent of the population of bone marrow cells” value was “about 0.2%”; the “Sca-1+ cells, percent of the population of bone marrow cells” value was “about 0.18%”; the “cd45+ cells, percent of the population of bone marrow cells” value is recorded as “about 0.08%”; the “fold increase of percentage of Sca-1+ cells in bone marrow over control” value was ~6 fold. Moreover, in data set [2] (setting [5]), the “fold increase of percentage of cd34+ cells in bone marrow over control” value is listed as ≥ 4 fold and the “fold increase of percentage of cd45+ cells in bone marrow over control” value was ≥ 3 fold. Further, in data set [3], the “fold increase of percentage of Sca-1+ cells in blood over control” value was ~3 fold and the “fold increase of percentage of cd45+ cells in blood over control” value is ~4 fold. In addition, in the data set on mice, the toxicity in mice entry is “not toxic”.

Regarding `CC(C)[C@]12O[C@H]1[C@@H]1O[C@]13[C@]1(O[C@H]1C[C@H]1C4=C(CC[C@@]13C)C(=O)OC4)[C@@H]2O` [triptolide], in data set [1] (setting [6]), the “CD34-expressing cells, percent of the population of blood cells” value is reported as ~1% and the “Sca-1+ cells, percent of the population of blood cells” value is recorded as ~1%. Besides, in data set [1] (setting [7]), the “Sca-1+ cells, percent of cells in blood” value is reported as ~2%; the “cd34+ cells, percent of cells in blood” value is on record as ~2%; the “cd45+ cells, percent of the cells in blood” value was “about 0.2%”. In data set [1] (setting [8]), the “Sca-1+ cells, percent of cells in blood” value was ~3% and the “cd34+ cells, percent of cells in blood” value was “about 3%”. In data set [2] (setting [6]), the “cd34+ cells, percent of the population of bone marrow cells” value is on record as ~0.8%; the “fold increase in the proportion of Sca-1 stem cells in bone marrow vs untreated mice” value was “approximately 15 fold”; the “fold increase of percentage of cd34+ cells in bone marrow over control” value is reported as ~16 fold; the “fold increase of percentage of cd45+ cells in bone marrow vs untreated control” value is reported as “about 3 fold”. The “sca-1+ stem cells, percent of bone marrow cell population” value in data set [2] (setting [6]) is recorded as 0.75%. In addition, in data set [2] (setting [7]), the “cd34+ cells, percent of bone marrow cells” value came out at 0.3%; the “cd45+ cells, percent in bone marrow” value was “about 0.07%”; the “fold increase of percentage of cd34+ cells in bone marrow compared to control mice” value came out at 6 fold; the “sca-1+ cells, percent of bone marrow cell population” value is 0.25%. Also, in data set [2] (setting [8]), the “CD34 cells, percent in bone marrow” value amounted to 0.65%; the “Sca-1+ cells, percent in bone marrow” value is recorded as “about 0.5%”; the “cd45+ cells, percent in bone marrow” value was ~0.12%.
